Data: patent US20080004325A1, “PTP1B inhibitors” (Wyeth, priority 2006, published 2008)

biological target: T1, catalytic domain of human PTP1b (residues 1-299) (Homo sapiens, UniProt P18031); experiment: PTP1b pNPP hydrolysis inhibition assay; type: biochemical; details: pNPP substrate, 25° C., pH 7.0, three fixed inhibitor concentrations; read-out: Ki Micromolar
T1 construct: catalytic domain of human PTP1b (residues 1-299); made in house; host or cells: E. coli
T1 sequence (P18031 1-299): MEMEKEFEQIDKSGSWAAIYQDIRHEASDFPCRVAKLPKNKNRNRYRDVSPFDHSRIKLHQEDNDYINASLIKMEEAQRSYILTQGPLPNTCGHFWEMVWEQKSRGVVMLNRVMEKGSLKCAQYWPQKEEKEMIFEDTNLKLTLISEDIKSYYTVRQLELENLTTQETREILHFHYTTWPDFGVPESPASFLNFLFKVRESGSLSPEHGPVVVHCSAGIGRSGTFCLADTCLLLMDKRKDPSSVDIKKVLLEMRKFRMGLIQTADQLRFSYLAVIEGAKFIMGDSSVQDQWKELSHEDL
Procedure: The p-nitrophenyl phosphate (pNPP) substrate was purchased from Sigma. PTPase activity was measured at room temperature (25° C.) in a 200 ul reaction mixture with various concentrations of substrate. Reactions began with enzyme addition and were quenched after 2-3 minutes with 1N NaOH. Background hydrolysis of pNPP was measured without addition of enzyme. […] All experiments were performed in 50 mM 3,3-dimethylglutarate buffer (pH 7.0), with 10 mM DTT, 1 mM EDTA, and with the ionic strength adjusted to 0.15 M with NaCl. All solutions were prepared in distilled, deionized water. For initial evaluation of each compound, percent inhibition was determined for two concentrations of compound (for example at 200 uM and 20 uM) at a fixed pNPP concentration.
Percent inhibition was determined following background subtraction of the non-enzymatic hydrolysis rate compared to no inhibitor (DMSO only) controls. Inhibition constants and inhibition patterns were evaluated using the direct curve-fitting program GraFit (Erithacus Software Limited).

Row | SMILES | Ki
1 | O=C1CN(c2csc(-c3ccccc3)c2)S(=O)(=O)N1 [5-(5-phenyl-3-thienyl)-1,2,5-thiadiazolidin-3-one 1,1-dioxide] | 150 µM
2 | Cc1c(N2CC(=O)NS2(=O)=O)csc1-c1cccc(NC2CCN(S(=O)(=O)Cc3ccccc3)CC2)c1 [5-[5-(3-{[1-(benzylsulfonyl)piperidine-4-yl]amino}phenyl)-4-methyl-3-thienyl]-1,2,5-thiadiazolidin-3-one 1,1-dioxide] | 4 µM
3 | Cc1c(N2CC(=O)NS2(=O)=O)csc1-c1cccc(NC2CC(C)(C)CC(C)(C)C2)c1 | 15 µM
4 | Cc1c(N2CC(=O)NS2(=O)=O)csc1-c1cccc([N+](=O)[O-])c1 [5-[4-methyl-5-(3-nitrophenyl)-3-thienyll-1,2,5-thiadiazolidin-3-one 1,1-dioxide] | 34 µM
5 | O=C1CN(c2csc(-c3cccc(NC4CCCCC4)c3)c2)S(=O)(=O)N1 [5-5-[3-(cyclohexylamino)phenyl]-3-thienyl}-1,2,5-thiadiazolidin-3-one 1,1-dioxide] | 12 µM
6 | NS(=O)(=O)N(c1cccc(-c2scc(N3CC(=O)NS3(=O)=O)c2Cl)c1)C1CCCCC1 [N-{3-[3-chloro-4-(1,1-dioxido-4-oxo-1,2,5-thiadiazolidin-2-yl)-2-thienyl]phenyl}-N-cyclohexylsulfamide] | 1.7 µM
7 | CC1C(=O)NS(=O)(=O)N1c1csc(-c2ccccc2)c1 (stereo not shown) [4-methyl-5-(5-phenyl-3-thienyl)-1,2,5-thiadiazolidin-3-one 1,1-dioxide] | > 1000 µM
8 | O=C1CN(c2csc(-c3cccc(NC4CCCCC4)c3)c2Cl)S(=O)(=O)N1 [5-{4-chloro-5-[3-(cyclohexylamino)phenyl]-3-thienyl}-1,2,5-thiadiazolidin-3-one 1,1-dioxide] | 14 µM
9 | O=C1CN(c2csc(-c3ccccc3)c2Br)S(=O)(=O)N1 [5-(4-bromo-5-phenyl-3-thienyl)-1,2,5-thiadiazolidin-3-one 1,1-dioxide] | 18 µM
10 | Cc1c(N2CC(=O)NS2(=O)=O)csc1-c1ccccc1 [5-(4-methyl-5-phenyl-3-thienyl)-1,2,5-thiadiazolidin-3-one 1,1-dioxide] | 41 µM
